This test has as its system L1210 leukemia ip in BDF1 mice, survival T/C. As to the kind of experiment: NCI In Vivo Anticancer Drug Screen. Data for tumor model L1210 Leukemia (intraperitoneal) in B6D2F1 (BDF1) mice. The conditions noted are these: endpoint: mean survival time, higher = longer survival. The method in brief:
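Each compound was tested against a transplantable tumor grown in mice. The endpoint was survival, with treated animals benchmarked against vehicle controls as a simple ratio.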

[1] abbreviates: dose: 25.0 mg/kg/injection, schedule: Q04DX003 (ip), vehicle: saline.
[2] abbreviates: dose: 50.0 mg/kg/injection, schedule: Q01DX001 (ip), vehicle: saline.
[3] abbreviates: dose: 200.0 mg/kg/injection, schedule: Q01DX001 (ip), vehicle: saline.
The mark [4] stands for this setting: dose: 100.0 mg/kg/injection, schedule: Q01DX001 (ip), vehicle: saline.
[5] abbreviates: dose: 400.0 mg/kg/injection, schedule: Q01DX001 (ip), vehicle: saline.
The mark [6] stands for this setting: dose: 50.0 mg/kg/injection, schedule: Q01DX009 (ip), vehicle: saline.
[7] abbreviates: dose: 100.0 mg/kg/injection, schedule: Q04DX003 (ip), vehicle: saline.
[8] abbreviates: dose: 100.0 mg/kg/injection, schedule: Q01DX009 (ip), vehicle: saline.
Setting [9] is: dose: 200.0 mg/kg/injection, schedule: Q01DX009 (ip), vehicle: saline.
Setting [10] is: dose: 100.0 mg/kg/injection, schedule: Q04DX003 (ip), vehicle: saline with Tween-80.
Setting [11] is: dose: 200.0 mg/kg/injection, schedule: Q04DX003 (ip), vehicle: saline with Tween-80.
Setting [12] is: dose: 400.0 mg/kg/injection, schedule: Q04DX003 (ip), vehicle: saline with Tween-80.

Inconclusive results and toxic doses are left out.

Regarding `Cc1nc(N)nc(N)c1-c1ccc(Cl)c(Cl)c1`, the T/C is 106 % of control (dose: 0.6 mg/kg/injection, schedule: Q01DX Z (ip), vehicle: methylcellulose (MC)); 102 % of control (dose: 1.0 mg/kg/injection, schedule: Q01DX009 (ip), vehicle: saline with Tween-80); 102 % of control (dose: 1.0 mg/kg/injection, schedule: Q01DX Z (ip), vehicle: methylcellulose (MC)); 96 % of control (dose: 1.0 mg/kg/injection, schedule: Q04DX009 (ip), vehicle: Klucel (hydroxypropylcellulose) (HPC)); 117 % of control (dose: 1.08 mg/kg/injection, schedule: Q01DX009 (ip), vehicle: saline); 106 % of control (dose: 1.5 mg/kg/injection, schedule: Q01DX Z (ip), vehicle: methylcellulose (MC)). Besides, the T/C reads like this: (dose: 1.8 mg/kg/injection, schedule: Q01DX009 (ip), vehicle: saline) 107 % of control; (dose: 2.0 mg/kg/injection, schedule: Q04DX009 (ip), vehicle: Klucel (hydroxypropylcellulose) (HPC)) 120 % of control; (dose: 2.3 mg/kg/injection, schedule: Q01DX Z (ip), vehicle: methylcellulose (MC)) 112 % of control; (dose: 3.0 mg/kg/injection, schedule: Q01DX009 (ip), vehicle: saline) 114 % of control; (dose: 3.0 mg/kg/injection, schedule: Q01DX010 (sc), vehicle: other) 152 % of control; (dose: 4.0 mg/kg/injection, schedule: Q01DX010 (sc), vehicle: other) 152 % of control. Moreover, the T/C (dose: 4.0 mg/kg/injection, schedule: Q01DX Z (ip), vehicle: methylcellulose (MC)) is 118 % of control; the T/C (dose: 5.0 mg/kg/injection, schedule: Q01DX009 (ip), vehicle: saline) is 122 % of control; the T/C (dose: 6.0 mg/kg/injection, schedule: Q01DX Z (ip), vehicle: methylcellulose (MC)) was 123 % of control; the T/C (dose: 8.0 mg/kg/injection, schedule: Q01DX009 (ip), vehicle: saline with Tween-80) was 102 % of control; the T/C (dose: 8.0 mg/kg/injection, schedule: Q04DX009 (ip), vehicle: Klucel (hydroxypropylcellulose) (HPC)) was 115 % of control; the T/C (dose: 8.4 mg/kg/injection, schedule: Q04DX003 (ip), vehicle: saline) was 102 % of control. For the same compound, the T/C is, setting by setting: (dose: 12.5 mg/kg/injection, schedule: Q04DX003 (ip), vehicle: saline) 95 % of control; (dose: 14.0 mg/kg/injection, schedule: Q04DX003 (ip), vehicle: saline) 115 % of control; (dose: 16.0 mg/kg/injection, schedule: Q01DX009 (ip), vehicle: saline with Tween-80) 90 % of control; (dose: 16.0 mg/kg/injection, schedule: Q04DX009 (ip), vehicle: Klucel (hydroxypropylcellulose) (HPC)) 110 % of control; (dose: 23.0 mg/kg/injection, schedule: Q04DX003 (ip), vehicle: saline) 105 % of control; (dose: 25.0 mg/kg/injection, schedule: Q01DX001 (ip), vehicle: saline) 98 % of control. For the same compound, the T/C reads like this: under setting [1], 122 % of control; (dose: 39.0 mg/kg/injection, schedule: Q04DX003 (ip), vehicle: saline) 119 % of control; under setting [2], 112 % of control; (dose: 65.0 mg/kg/injection, schedule: Q04DX003 (ip), vehicle: saline) 115 % of control; under setting [3], 88 % of control.

With `COCC(=O)c1ccccc1`, the T/C is 96 % of control under setting [2], 98 % of control under setting [4], 98 % of control under setting [3] and 93 % of control under setting [5].

With `CCCCc1c(C)nc(N)[nH]c1=O`, the T/C was 104 % of control (dose: 100.0 mg/kg/injection, schedule: Q04DX002 (ip), vehicle: Klucel (hydroxypropylcellulose) (HPC)); 100 % of control (dose: 200.0 mg/kg/injection, schedule: Q04DX002 (ip), vehicle: Klucel (hydroxypropylcellulose) (HPC)); 100 % of control (dose: 400.0 mg/kg/injection, schedule: Q04DX002 (ip), vehicle: Klucel (hydroxypropylcellulose) (HPC)).

For the compound `O=C1c2ccccc2C(=O)C2C1C(c1ccccc1)N(c1ccccc1)C2c1ccccc1` (stereo unspecified), the T/C is 94 % of control under setting [2], 105 % of control under setting [4], 94 % of control under setting [3] and 103 % of control under setting [5].

For the compound `COC(=O)C(C)CN1CCCC1` (stereo unspecified), the T/C was 97 % of control (dose: 12.5 mg/kg/injection, schedule: Q01DX009 (ip), vehicle: saline); 88 % of control (dose: 25.0 mg/kg/injection, schedule: Q01DX009 (ip), vehicle: saline); 98 % of control under setting [1]; 100 % of control under setting [6]; 107 % of control (dose: 50.0 mg/kg/injection, schedule: Q04DX003 (ip), vehicle: saline); 104 % of control under setting [7].

For the compound `CCCCC(CCCC)NCCOC(=O)c1ccc(N)cc1`, under “dose: 75.0 mg/kg/injection, schedule: Q01DX001 (ip), vehicle: other”, the T/C was 102 % of control.

Turning to `CCCCSc1n[nH]c(=O)nc1N`, the T/C by setting is: under setting [4], 93 % of control; under setting [3], 96 % of control; under setting [5], 98 % of control.

In the case of `Nc1ccc(S(=O)(=O)Nc2cnc3ccccc3n2)cc1`, the T/C by setting is: under setting [6], 99 % of control; under setting [8], 92 % of control; (dose: 100.0 mg/kg/injection, schedule: Q04DX002 (ip), vehicle: saline) 91 % of control; under setting [9], 89 % of control; (dose: 200.0 mg/kg/injection, schedule: Q04DX002 (ip), vehicle: saline) 94 % of control.

As to `C=CC1CCN(CCn2cnc3c(N)ncnc32)CC1`, the T/C is 97 % of control under setting [10], 103 % of control under setting [11] and 97 % of control under setting [12].

For `Cc1c(C/C(=N/O)C(=O)O)[nH]c(=S)[nH]c1=O`, the T/C is, setting by setting: under setting [10], 103 % of control; under setting [11], 96 % of control; under setting [12], 102 % of control.

As for `Cc1[nH]c2ccccc2c1C(=O)Cc1ccc(Cl)c(Cl)c1`, the T/C is, setting by setting: under setting [2], 101 % of control; under setting [4], 98 % of control; under setting [3], 98 % of control; under setting [5], 101 % of control.

For the compound `CN1CCN(C(=S)Nc2ccc([N+](=O)[O-])cc2)CC1`, the T/C runs as follows: (dose: 100.0 mg/kg/injection, schedule: Q01DX009 (ip), vehicle: Klucel (hydroxypropylcellulose) (HPC)) 98 % of control; (dose: 200.0 mg/kg/injection, schedule: Q01DX009 (ip), vehicle: Klucel (hydroxypropylcellulose) (HPC)) 105 % of control; (dose: 400.0 mg/kg/injection, schedule: Q01DX009 (ip), vehicle: Klucel (hydroxypropylcellulose) (HPC)) 96 % of control.

On to `COc1ccccc1C1CCCCCC1O` (stereo unspecified), for which the T/C runs as follows: under setting [8], 98 % of control; under setting [9], 98 % of control; (dose: 400.0 mg/kg/injection, schedule: Q01DX009 (ip), vehicle: saline) 98 % of control.

Consider `COC(=O)C1(C)CCCC2(C)C3CCC(C(C)C)C(CO)C3C(CO)CC12` (stereo unspecified), for which the T/C (dose: 100.0 mg/kg/injection, schedule: Q04DX003 (ip), vehicle: other) is 107 % of control; the T/C (dose: 200.0 mg/kg/injection, schedule: Q04DX003 (ip), vehicle: other) is 104 % of control; the T/C (dose: 400.0 mg/kg/injection, schedule: Q04DX003 (ip), vehicle: other) is 107 % of control.

Regarding `NC(=S)c1n[nH]nc1N`, the T/C under setting [2] was 104 % of control, the T/C under setting [4] was 100 % of control and the T/C under setting [3] is 100 % of control.

Regarding `CC(C)(C)c1ccc(OC(=O)NCCCCCCNC(=O)Oc2ccc(C(C)(C)C)cc2)cc1`, the T/C reads like this: (dose: 100.0 mg/kg/injection, schedule: Q01DX009 (ip), vehicle: other) 96 % of control; (dose: 200.0 mg/kg/injection, schedule: Q01DX009 (ip), vehicle: other) 91 % of control; (dose: 400.0 mg/kg/injection, schedule: Q01DX009 (ip), vehicle: other) 87 % of control.

Take `CCC[CH2][Ge]([CH2]CCC)[O][Ge]([CH2]CCC)[CH2]CCC`: the T/C (dose: 100.0 mg/kg/injection, schedule: Q04DX002 (ip), vehicle: saline with Tween-80) was 87 % of control.

On to `CSc1cccc(Cl)c1`, for which the T/C (dose: 75.0 mg/kg/injection, schedule: Q01DX001 (ip), vehicle: saline) was 100 % of control and the T/C (dose: 150.0 mg/kg/injection, schedule: Q01DX001 (ip), vehicle: saline) was 101 % of control.

`CN=C1N[N+]2=C(C)CSCC2(C)S1` (stereo unspecified): the T/C is 98 % of control under setting [7]; 98 % of control (dose: 200.0 mg/kg/injection, schedule: Q04DX003 (ip), vehicle: saline); 89 % of control (dose: 400.0 mg/kg/injection, schedule: Q04DX003 (ip), vehicle: saline).

The values above are taken from PubChem BioAssay AID248 (DTP/NCI, 2004).
